# Test results: patent US10294229B2, “Heteroaryl substituted aminopyridine compounds” (BRISTOL-MYERS SQUIBB COMPANY, priority 2015, dated 2019)
# Target: IRAK4 (Homo sapiens (Human), UniProt Q9NWZ3)
# Experiment: IRAK4 Inhibition Assay
# Format: biochemical
# Conditions: ATP 500 μM; IRAK4 0.6 nM
# Summary of the method: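 Readout: electrophoretic (LabChip) separation of fluorescent peptide substrate from phosphorylated product after EDTA quench. Reactions ran 60 min at room temperature with 0.6 nM IRAK4, 1.5 μM peptide and 500 μM ATP; inhibition referenced to no-enzyme (100%) and vehicle (0%) controls.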
# IRAK4, sequence (Q9NWZ3 whole entry, species assumed): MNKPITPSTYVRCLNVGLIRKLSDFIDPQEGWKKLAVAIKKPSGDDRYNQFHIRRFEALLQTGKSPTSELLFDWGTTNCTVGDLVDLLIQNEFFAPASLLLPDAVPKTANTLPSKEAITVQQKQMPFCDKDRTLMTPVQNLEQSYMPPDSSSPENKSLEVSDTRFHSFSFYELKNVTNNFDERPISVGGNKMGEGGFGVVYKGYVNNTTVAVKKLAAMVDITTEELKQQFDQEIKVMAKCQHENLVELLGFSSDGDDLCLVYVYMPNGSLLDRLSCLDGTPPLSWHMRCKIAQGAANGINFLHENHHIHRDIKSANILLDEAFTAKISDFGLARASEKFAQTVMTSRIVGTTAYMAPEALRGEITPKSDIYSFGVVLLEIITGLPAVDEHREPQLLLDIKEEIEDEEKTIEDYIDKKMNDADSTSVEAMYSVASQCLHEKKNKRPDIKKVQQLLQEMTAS
row,Compound,IC50 [nM]
1,"CC(C)Nc1cc(-n2ncc3cc(C#N)cnc32)ncc1-c1cnn(CC2COC2)c1 [Example 254, 1-(4-(isopropylamino)-5-(1-(oxetan-3-ylmethyl)-1H-pyrazol-4-yl)pyridin-2-yl)-1H-pyrazolo[3,4-b]pyridine-5-carbonitrile]",190
2,"CC(C)Nc1cc(-n2ncc3cc(C#N)cnc32)ncc1-c1cnn(C2CC2)c1 [Example 259, 1-(5-(1-cyclopropyl-1H-pyrazol-4-yl)-4-(isopropylamino)pyridin-2-yl)-1H-pyrazolo[3,4-b]pyridine-5-carbonitrile]",153
3,"CC(C)Nc1cc(-n2ncc3cc(C#N)cnc32)ncc1-c1cnn(C(F)F)c1 [Example 260, 1-(5-(1-(difluoromethyl)-1H-pyrazol-4-yl)-4-(isopropylamino)pyridin-2-yl)-1H-pyrazolo[3,4-b]pyridine-5-carbonitrile]",146
4,"CC(C)Nc1cc(-n2ncc3cncnc32)ncc1-c1cnn(CC(F)(F)F)c1 [Example 262, N-isopropyl-2-(1H-pyrazolo[3,4-d]pyrimidin-1-yl)-5-(1-(2,2,2-trifluoroethyl)-1H-pyrazol-4-yl)pyridin-4-amine]",288
5,"COCc1cn(-c2cnc(-n3ncc4cc(C#N)cnc43)cc2NC(C)C)nn1 [Example 267, 1-(4-(isopropylamino)-5-(4-(methoxymethyl)-1H-1,2,3-triazol-1-yl)pyridin-2-yl)-1H-pyrazolo [3,4-b]pyridine-5-carbonitrile]",83
6,"CCCc1cn(-c2cnc(-n3ncc4cncnc43)cc2Nc2cnn(CC(F)F)c2)nn1 [Example 271, N-(1-(2,2-difluoroethyl)-1H-pyrazol-4-yl)-5-(4-propyl-1H-1,2,3-triazol-1-yl)-2-(1H-pyrazolo[3,4-d]pyrimidin-1-yl)pyridin-4-amine]",108
7,"CCCc1cn(-c2cnc(-n3ncc4cc(C#N)cnc43)cc2N[C@H](C)CO)nn1 [Example 272, (R)-1-(4-((1-hydroxypropan-2-yl)amino)-5-(4-propyl-1H-1,2,3-triazol-1-yl)pyridin-2-yl)-1H-pyrazolo[3,4-b]pyridine-5-carbonitrile]",529
8,"CCCc1cn(-c2cnc(-n3ncc4cc(C#N)cnc43)cc2N[C@@H](C)CO)nn1 [Example 273, (S)-1-(4-((1-hydroxypropan-2-yl)amino)-5-(4-propyl-1H-1,2,3-triazol-1-yl)pyridin-2-yl)-1H-pyrazolo[3,4-b]pyridine-5-carbonitrile]",78
9,"CCCc1cn(-c2cnc(-n3cnc4cc(C#N)cnc43)cc2NC2COC2)nn1 [Example 277, 3-(4-(oxetan-3-ylamino)-5-(4-propyl-1H-1,2,3-triazol-1-yl)pyridin-2-yl)-3H-imidazo[4,5-b]pyridine-6-carbonitrile]",87
10,"CCCc1cn(-c2cnc(-n3cnc4cc(C#N)cnc43)cc2N[C@H](C)CO)nn1 [Example 286, (R)-3-(4-((1-hydroxypropan-2-yl)amino)-5-(4-propyl-1H-1,2,3-triazol-1-yl)pyridin-2-yl)-3H-imidazo[4,5-b]pyridine-6-carbonitrile]",157
11,"CC(C)Nc1cc(-n2ncc3cc(C#N)cnc32)ncc1-n1cc(CO)nn1 [Example 295, 1-(5-(4-(hydroxymethyl)-1H-1,2,3-triazol-1-yl)-4-(isopropylamino)pyridin-2-yl)-1H-pyrazolo[3,4-b]pyridine-5-carbonitrile]",48
12,"CC(C)Nc1cc(-n2ncc3cc(C#N)cnc32)ncc1-n1cc(C(C)(C)O)nn1 [Example 298, 1-(5-(4-(2-hydroxypropan-2-yl)-1H-1,2,3-triazol-1-yl)-4-(isopropylamino)pyridin-2-yl)-1H-pyrazolo[3,4-b]pyridine-5-carbonitrile]",194
13,"CC(C)Nc1cc(-n2ncc3cc(C#N)cnc32)ncc1-n1cc(-c2ccccn2)nn1 [Example 304, 1-(4-(isopropylamino)-5-(4-(pyridin-2-yl)-1H-1,2,3-triazol-1-yl)pyridin-2-yl)-1H-pyrazolo[3,4-b]pyridine-5-carbonitrile]",115
14,"CC(C)Nc1cc(-n2ncc3cc(C#N)cnc32)ncc1-n1cc(CC(C)(C)O)nn1 [Example 306, 1-(5-(4-(2-hydroxy-2-methylpropyl)-1H-1,2,3-triazol-1-yl)-4-(isopropylamino)pyridin-2-yl)-1H-pyrazolo[3,4-b]pyridine-5-carbonitrile]",56
15,"CC(C)Nc1cc(-n2ncc3cc(C#N)cnc32)ncc1-n1cc(CN(C)C)nn1 [Example 308, 1-(5-(4-((dimethylamino)methyl)-1H-1,2,3-triazol-1-yl)-4-(isopropylamino)pyridin-2-yl)-1H-pyrazolo[3,4-b]pyridine-5-carbonitrile]",80
16,"CC(C)Nc1cc(-n2ncc3cc(C#N)cnc32)ncc1-n1cc(C(N)=O)nn1 [Example 309, 1-(6-(5-cyano-1H-pyrazolo[3,4-b]pyridin-1-yl)-4-(isopropylamino)pyridin-3-yl)-1H-1,2,3-triazole-4-carboxamide]",304
17,"CC(C)Nc1cc(-n2ncc3cc(C#N)cnc32)ncc1-n1cc(CN)nn1 [Example 310, 1-(5-(4-(aminomethyl)-1H-1,2,3-triazol-1-yl)-4-(isopropylamino)pyridin-2-yl)-1H-pyrazolo[3,4-b]pyridine-5-carbonitrile]",108
18,"CC(C)Nc1cc(-n2ncc3cc(C#N)cnc32)ncc1-n1cc(C(C)(C)N)nn1 [Example 312, 1-(5-(4-(2-aminopropan-2-yl)-1H-1,2,3-triazol-1-yl)-4-(isopropylamino)pyridin-2-yl)-1H-pyrazolo[3,4-b]pyridine-5-carbonitrile]",213
19,"CC(C)Nc1cc(-n2ncc3cc(C#N)cnc32)ncc1-n1cc(CNC(N)=O)nn1 [Example 313, 1-((1-(6-(5-cyano-1H-pyrazolo[3,4-b]pyridin-1-yl)-4-(isopropylamino)pyridin-3-yl)-1H-1,2,3-triazol-4-yl)methyl)urea]",115
20,"CNCc1cn(-c2cnc(-n3ncc4cc(C#N)cnc43)cc2NC(C)C)nn1 [Example 314, 1-(4-(isopropylamino)-5-(4-((methylamino)methyl)-1H-1,2,3-triazol-1-yl)pyridin-2-yl)-1H-pyrazolo[3,4-b]pyridine-5-carbonitrile]",93

# Now those with a lower IC50, led by results:
row,IC50 [nM],Compound
1,39,"CC(C)Nc1cc(-n2ncc3cc(C#N)cnc32)ncc1-c1cnn(CC(F)(F)F)c1 [Example 255, 1-(4-(isopropylamino)-5-(1-(2,2,2-trifluoroethyl)-1H-pyrazol-4-yl)pyridin-2-yl)-1H-pyrazolo[3,4-b]pyridine-5-carbonitrile]"
2,20,"CC(C)Nc1cc(-n2ncc3cc(C#N)cnc32)ncc1-c1cnn(C2CCOCC2)c1 [Example 257, 1-(4-(isopropylamino)-5-(1-(tetrahydro-2H-pyran-4-yl)-1H-pyrazol-4-yl)pyridin-2-yl)-1H-pyrazolo[3,4-b]pyridine-5-carbonitrile]"
3,29,"CCCn1cc(-c2cnc(-n3ncc4cc(C#N)cnc43)cc2NC(C)C)cn1 [Example 261, 1-(4-(isopropylamino)-5-(1-propyl-1H-pyrazol-4-yl)pyridin-2-yl)-1H-pyrazolo[3,4-b]pyridine-5-carbonitrile]"
4,38,"CC(O)Cc1cn(-c2cnc(-n3ncc4cc(C#N)cnc43)cc2NC(C)C)nn1 (centres unmarked) [Example 268, 1-(5-(4-(2-hydroxypropyl)-1H-1,2,3-triazol-1-yl)-4-(isopropylamino)pyridin-2-yl)-1H-pyrazolo[3,4-b]pyridine-5-carbonitrile]"
5,17,"CCCc1cn(-c2cnc(-n3ncc4cc(C#N)cnc43)cc2NC2COC2)nn1 [Example 276, 1-(4-(oxetan-3-ylamino)-5-(4-propyl-1H-1,2,3-triazol-1-yl)pyridin-2-yl)-1H-pyrazolo[3,4-b]pyridine-5-carbonitrile]"
6,17,"CCCc1cn(-c2cnc(-n3cnc4cnc(N)nc43)cc2NC(C)C)nn1 [Example 279, 9-(4-(isopropylamino)-5-(4-propyl-1H-1,2,3-triazol-1-yl)pyridin-2-yl)-9H-purin-2-amine]"
7,34,"CCCc1cn(-c2cnc(-n3ncc4cc(C#N)cnc43)cc2NCC(C)(C)O)nn1 [Example 287, 1-(4-((2-hydroxy-2-methylpropyl)amino)-5-(4-propyl-1H-1,2,3-triazol-1-yl)pyridin-2-yl)-1H-pyrazolo[3,4-b]pyridine-5-carbonitrile]"
8,28,"CC(C)Nc1cc(-n2ncc3cc(C#N)cnc32)ncc1-n1cc(-c2ccccc2)nn1 [Example 297, 1-(4-(isopropylamino)-5-(4-phenyl-1H-1,2,3-triazol-1-yl)pyridin-2-yl)-1H-pyrazolo[3,4-b]pyridine-5-carbonitrile]"
9,44,"CC(C)Nc1cc(-n2ncc3cc(C#N)cnc32)ncc1-n1cc(-c2cccnc2)nn1 [Example 299, 1-(4-(isopropylamino)-5-(4-(pyridin-3-yl)-1H-1,2,3-triazol-1-yl)pyridin-2-yl)-1H-pyrazolo[3,4-b]pyridine-5-carbonitrile]"
10,22,"CC(C)Nc1cc(-n2ncc3cc(C#N)cnc32)ncc1-n1cc(C2CC2)nn1 [Example 300, 1-(5-(4-cyclopropyl-1H-1,2,3-triazol-1-yl)-4-(isopropylamino)pyridin-2-yl)-1H-pyrazolo[3,4-b]pyridine-5-carbonitrile]"
11,22,"CC(C)Nc1cc(-n2ncc3cc(C#N)cnc32)ncc1-n1cc(CN2CCOCC2)nn1 [Example 301, 1-(4-(isopropylamino)-5-(4-(morpholinomethyl)-1H-1,2,3-triazol-1-yl)pyridin-2-yl)-1H-pyrazolo[3,4-b]pyridine-5-carbonitrile]"
12,29,"CC(C)Nc1cc(-n2ncc3cc(C#N)cnc32)ncc1-n1cc(CCO)nn1 [Example 302, 1-(5-(4-(2-hydroxyethyl)-1H-1,2,3-triazol-1-yl)-4-(isopropylamino)pyridin-2-yl)-1H-pyrazolo[3,4-b]pyridine-5-carbonitrile]"
